Where a chain is given by its changes, count along the chain named.
Assays:
[1] = biological target: T1, DFsc (2A3H-DFsc), [DFsc-Zn(II)2] (synthetic construct, UniProt Z9QLD2D1S0, H107A); test: UV/vis; type: binding; conditions: Zn(II)-bound form; bound as semiquinone derived from 4-t-butylcatechol
T1 sequence (Z9QLD2D1S0 1-115 H107A): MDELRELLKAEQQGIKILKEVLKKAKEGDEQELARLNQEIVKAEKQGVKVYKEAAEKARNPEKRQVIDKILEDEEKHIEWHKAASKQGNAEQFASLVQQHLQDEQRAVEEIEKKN

[2] = biological target: T2, DFsc (2A3H-DFsc), [DFsc-Zn(II)2] (synthetic construct, UniProt Z9QLD2D1S0, H107N); test: UV/vis; type: binding; conditions: Zn(II)-bound form; bound as semiquinone derived from 4-t-butylcatechol
T2 sequence (Z9QLD2D1S0 1-115 H107N): T1 sequence (Z9QLD2D1S0 1-115 H107A) with A107N

Compound: CC(C)(C)c1ccc(O)c(O)c1
- UV/vis [1]: The variants also form a 4-t-butylcatechol-derived SQ• complex
- UV/vis [2]: The variants also form a 4-t-butylcatechol-derived SQ• complex
